Tests used:
ECHCG (Barnyardgrass) [1] = experiment: Preemergence herbicidal evaluation; type: in vivo, Echinochloa crus-galli; conditions: preemergence, rated 4-5 weeks after treatment, 0-9 scale
Procedure, shortened: (§1)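 Test compound, dissolved in aqueous acetone, was sprayed over planted soil cups at an equivalent of about 0.0156 to 0.500 kg/ha; seeds had been mixed with potting soil. Greenhouse growth followed, with visual 0-9 scoring of injury at four to five weeks.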

[2] = system: TRZAWR (Wheat, Winter, cv Riband); experiment: Postemergence herbicidal evaluation; type: in vivo, Triticum aestivum; conditions: postemergence
Procedure, shortened: (§2)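 Herbicidal effect was judged by eye on a 0–9 scale covering stand, vigor, deformity, size and chlorosis, compared with controls, four to five weeks after seedlings about two weeks old were sprayed (40 psi, ~0.0156–0.500 kg/ha).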

[3] = system: IPOHE (Morningglory, Ivyleaf); experiment: Postemergence herbicidal evaluation; type: in vivo, Ipomoea hederacea; conditions: postemergence
Procedure, shortened: as §2

CASOB (Sicklepod) = experiment: Preemergence herbicidal evaluation; type: in vivo, Cassia obtusifolia; conditions: preemergence, rated 4-5 weeks after treatment, 0-9 scale
Procedure, shortened: as §1

[4] = system: ECHORC (Watergrass (Calif.)); experiment: Postemergence weed control under flooded paddy conditions; type: in vivo, Echinochloa oryzoides; conditions: postemergence weeds, rated 3 to 4 weeks after treatment
Procedure, shortened: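 Flood-water application, about 0.0313–0.500 kg/ha a.i. in aqueous/acetone 50/50 v/v; water depth 1.5–3 cm throughout. Weeds 3–5 cm, rice 1.5–2.5 leaf. Greenhouse; 0–9 visual rating vs control at 3–4 wk.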

SETVI (Foxtail, Green) = experiment: Postemergence herbicidal evaluation; type: in vivo, Setaria viridis; conditions: postemergence
Procedure, shortened: as §2

ECHCG (Barnyardgrass) [5] = experiment: Postemergence herbicidal evaluation; type: in vivo, Echinochloa crus-galli; conditions: postemergence
Procedure, shortened: as §2

[6] = system: CHEAL (Lambsquarters, Common); experiment: Preemergence herbicidal evaluation; type: in vivo, Chenopodium album; conditions: preemergence, rated 4-5 weeks after treatment, 0-9 scale
Procedure, shortened: as §1

AMBEL (Ragweed, Common) = experiment: Postemergence herbicidal evaluation; type: in vivo, Ambrosia artemisifolia; conditions: postemergence
Procedure, shortened: as §2

[7] = system: GLXMAW (Soybean, Williams); experiment: Postemergence herbicidal evaluation; type: in vivo, Glycine max, (L.) Merr. cv Williams; conditions: postemergence
Procedure, shortened: as §2

[8] = system: IPOHE (Morningglory, Ivyleaf); experiment: Preemergence herbicidal evaluation; type: in vivo, Ipomoea hederacea; conditions: preemergence, rated 4-5 weeks after treatment, 0-9 scale
Procedure, shortened: as §1

ABUTH (Velvetleaf) = experiment: Postemergence herbicidal evaluation; type: in vivo, Abutilon theophrasti; conditions: postemergence
Procedure, shortened: as §2

GALAP (Galium) = experiment: Preemergence herbicidal evaluation; type: in vivo, Galium aparine; conditions: preemergence, rated 4-5 weeks after treatment, 0-9 scale
Procedure, shortened: as §1

ZEAMX (Corn, Field) = experiment: Preemergence herbicidal evaluation; type: in vivo, Zea mays; conditions: preemergence, rated 4-5 weeks after treatment, 0-9 scale
Procedure, shortened: as §1

Compound: COC(=O)CC1SC(=Nc2cc(-n3c(=O)cc(C(F)(F)F)n(C)c3=O)c(F)cc2Cl)N(C)C1=O (stereo not shown) [Compound 88, Methyl 2-{{2-chloro-5-[3,6-dihydro-3-methyl-2,6-dioxo-4-(trifluoromethyl)-1(2H)-pyrimidinyl]-4-fluorophenyl}imino}-3-methyl-4-oxo-5-thiazolidineacetate]
- ECHCG rating (ECHCG (Barnyardgrass) [1]; 0.0156 kg/ha): 0.0
- ECHCG rating (ECHCG (Barnyardgrass) [1]; 0.0313 kg/ha): 0.0
- ECHCG rating (ECHCG (Barnyardgrass) [1]; 0.0625 kg/ha): 0.0
- ECHCG rating (ECHCG (Barnyardgrass) [1]; 0.1250 kg/ha): 0.0
- ECHCG rating (ECHCG (Barnyardgrass) [1]; 0.2500 kg/ha): 2.0
- TRZAWR herbicidal rating ([2]; rate 0.0158 kg/ha): 5.5
- TRZAWR herbicidal rating ([2]; rate 0.0315 kg/ha): 7.0
- TRZAWR herbicidal rating ([2]; rate 0.0630 kg/ha): 7.5
- IPOHE herbicidal rating ([3]; rate 0.0158 kg/ha): 9.0
- IPOHE herbicidal rating ([3]; rate 0.0315 kg/ha): 9.0
- IPOHE herbicidal rating ([3]; rate 0.0630 kg/ha): 9.0
- CASOB rating (CASOB (Sicklepod); 0.0156 kg/ha): 0.0
- CASOB rating (CASOB (Sicklepod); 0.0313 kg/ha): 0.0
- CASOB rating (CASOB (Sicklepod); 0.0625 kg/ha): 0.0
- CASOB rating (CASOB (Sicklepod); 0.1250 kg/ha): 3.0
- CASOB rating (CASOB (Sicklepod); 0.2500 kg/ha): 9.0
- Herbicidal rating ECHORC ([4]; Rate 0.0313 kg/ha): 6.0
- Herbicidal rating ECHORC ([4]; Rate 0.0625 kg/ha): 6.0
- Herbicidal rating ECHORC ([4]; Rate 0.1250 kg/ha): 6.0
- Herbicidal rating ECHORC ([4]; Rate 0.2500 kg/ha): 7.0
- SETVI herbicidal rating (SETVI (Foxtail, Green); rate 0.0158 kg/ha): 9.0
- SETVI herbicidal rating (SETVI (Foxtail, Green); rate 0.0315 kg/ha): 9.0
- SETVI herbicidal rating (SETVI (Foxtail, Green); rate 0.0630 kg/ha): 9.0
- ECHCG herbicidal rating (ECHCG (Barnyardgrass) [5]; rate 0.0158 kg/ha): 1.0
- ECHCG herbicidal rating (ECHCG (Barnyardgrass) [5]; rate 0.0315 kg/ha): 7.0
- ECHCG herbicidal rating (ECHCG (Barnyardgrass) [5]; rate 0.0630 kg/ha): 7.0
- CHEAL rating ([6]; 0.0156 kg/ha): 7.0
- CHEAL rating ([6]; 0.0313 kg/ha): 9.0
- CHEAL rating ([6]; 0.0625 kg/ha): 9.0
- CHEAL rating ([6]; 0.1250 kg/ha): 9.0
- CHEAL rating ([6]; 0.2500 kg/ha): 9.0
- AMBEL herbicidal rating (AMBEL (Ragweed, Common); rate 0.0158 kg/ha): 9.0
- AMBEL herbicidal rating (AMBEL (Ragweed, Common); rate 0.0315 kg/ha): 9.0
- AMBEL herbicidal rating (AMBEL (Ragweed, Common); rate 0.0630 kg/ha): 9.0
- GLXMAW herbicidal rating ([7]; rate 0.0158 kg/ha): 8.5
- GLXMAW herbicidal rating ([7]; rate 0.0315 kg/ha): 8.5
- GLXMAW herbicidal rating ([7]; rate 0.0630 kg/ha): 9.0
- IPOHE rating ([8]; 0.0156 kg/ha): 0.0
- IPOHE rating ([8]; 0.0313 kg/ha): 0.0
- IPOHE rating ([8]; 0.0625 kg/ha): 0.0
- IPOHE rating ([8]; 0.1250 kg/ha): 9.0
- IPOHE rating ([8]; 0.2500 kg/ha): 9.0
- ABUTH herbicidal rating (ABUTH (Velvetleaf); rate 0.0158 kg/ha): 9.0
- ABUTH herbicidal rating (ABUTH (Velvetleaf); rate 0.0315 kg/ha): 9.0
- ABUTH herbicidal rating (ABUTH (Velvetleaf); rate 0.0630 kg/ha): 9.0
- GALAP rating (GALAP (Galium); 0.0156 kg/ha): 0.0
- GALAP rating (GALAP (Galium); 0.0313 kg/ha): 0.0
- GALAP rating (GALAP (Galium); 0.0625 kg/ha): 3.0
- GALAP rating (GALAP (Galium); 0.1250 kg/ha): 3.0
- GALAP rating (GALAP (Galium); 0.2500 kg/ha): 9.0
- ZEAMX rating (ZEAMX (Corn, Field); 0.0156 kg/ha): 0.0
- ZEAMX rating (ZEAMX (Corn, Field); 0.0313 kg/ha): 0.0
- ZEAMX rating (ZEAMX (Corn, Field); 0.0625 kg/ha): 0.0
- ZEAMX rating (ZEAMX (Corn, Field); 0.1250 kg/ha): 6.0
- ZEAMX rating (ZEAMX (Corn, Field); 0.2500 kg/ha): 8.0

Compound: CN1C(=O)C(CC(N)=O)SC1=Nc1cc(-n2c(=O)cc(C(F)(F)F)n(C)c2=O)c(F)cc1Cl (stereo not shown) [Compound 92, 2-{{2-Chloro-5-[3,6-dihydro-3-methyl-2,6-dioxo-4-(trifluoromethyl)-1(2H)-pyrimidinyl]-4-fluorophenyl}imino}-3-methyl-4-oxo-5-thiazolidineacetamide]
- ECHCG rating (ECHCG (Barnyardgrass) [1]; 0.0156 kg/ha): 0.0
- ECHCG rating (ECHCG (Barnyardgrass) [1]; 0.0313 kg/ha): 0.0
- ECHCG rating (ECHCG (Barnyardgrass) [1]; 0.0625 kg/ha): 0.0
- ECHCG rating (ECHCG (Barnyardgrass) [1]; 0.1250 kg/ha): 0.0
- ECHCG rating (ECHCG (Barnyardgrass) [1]; 0.2500 kg/ha): 0.0
- TRZAWR herbicidal rating ([2]; rate 0.0158 kg/ha): 5.0
- TRZAWR herbicidal rating ([2]; rate 0.0315 kg/ha): 6.0
- TRZAWR herbicidal rating ([2]; rate 0.0630 kg/ha): 6.5
- IPOHE herbicidal rating ([3]; rate 0.0158 kg/ha): 9.0
- IPOHE herbicidal rating ([3]; rate 0.0315 kg/ha): 9.0
- IPOHE herbicidal rating ([3]; rate 0.0630 kg/ha): 9.0
- CASOB rating (CASOB (Sicklepod); 0.0156 kg/ha): 0.0
- CASOB rating (CASOB (Sicklepod); 0.0313 kg/ha): 0.0
- CASOB rating (CASOB (Sicklepod); 0.0625 kg/ha): 0.0
- CASOB rating (CASOB (Sicklepod); 0.2500 kg/ha): 3.0
- Herbicidal rating ECHORC ([4]; Rate 0.0313 kg/ha): 0.0
- Herbicidal rating ECHORC ([4]; Rate 0.0625 kg/ha): 0.0
- Herbicidal rating ECHORC ([4]; Rate 0.1250 kg/ha): 2.0
- Herbicidal rating ECHORC ([4]; Rate 0.2500 kg/ha): 3.0
- SETVI herbicidal rating (SETVI (Foxtail, Green); rate 0.0158 kg/ha): 0.0
- SETVI herbicidal rating (SETVI (Foxtail, Green); rate 0.0315 kg/ha): 9.0
- SETVI herbicidal rating (SETVI (Foxtail, Green); rate 0.0630 kg/ha): 9.0
- ECHCG herbicidal rating (ECHCG (Barnyardgrass) [5]; rate 0.0158 kg/ha): 0.0
- ECHCG herbicidal rating (ECHCG (Barnyardgrass) [5]; rate 0.0315 kg/ha): 1.0
- ECHCG herbicidal rating (ECHCG (Barnyardgrass) [5]; rate 0.0630 kg/ha): 1.0
- CHEAL rating ([6]; 0.0156 kg/ha): 9.0
- CHEAL rating ([6]; 0.0313 kg/ha): 9.0
- CHEAL rating ([6]; 0.0625 kg/ha): 9.0
- CHEAL rating ([6]; 0.1250 kg/ha): 9.0
- CHEAL rating ([6]; 0.2500 kg/ha): 9.0
- AMBEL herbicidal rating (AMBEL (Ragweed, Common); rate 0.0158 kg/ha): 0.0
- AMBEL herbicidal rating (AMBEL (Ragweed, Common); rate 0.0315 kg/ha): 9.0
- AMBEL herbicidal rating (AMBEL (Ragweed, Common); rate 0.0630 kg/ha): 9.0
- GLXMAW herbicidal rating ([7]; rate 0.0158 kg/ha): 7.5
- GLXMAW herbicidal rating ([7]; rate 0.0315 kg/ha): 9.0
- GLXMAW herbicidal rating ([7]; rate 0.0630 kg/ha): 9.0
- IPOHE rating ([8]; 0.0156 kg/ha): 0.0
- IPOHE rating ([8]; 0.0313 kg/ha): 0.0
- IPOHE rating ([8]; 0.0625 kg/ha): 0.0
- IPOHE rating ([8]; 0.1250 kg/ha): 9.0
- IPOHE rating ([8]; 0.2500 kg/ha): 9.0
- ABUTH herbicidal rating (ABUTH (Velvetleaf); rate 0.0158 kg/ha): 9.0
- ABUTH herbicidal rating (ABUTH (Velvetleaf); rate 0.0315 kg/ha): 9.0
- ABUTH herbicidal rating (ABUTH (Velvetleaf); rate 0.0630 kg/ha): 9.0
- GALAP rating (GALAP (Galium); 0.0156 kg/ha): 0.0
- GALAP rating (GALAP (Galium); 0.0313 kg/ha): 0.0
- GALAP rating (GALAP (Galium); 0.0625 kg/ha): 0.0
- GALAP rating (GALAP (Galium); 0.1250 kg/ha): 9.0
- GALAP rating (GALAP (Galium); 0.2500 kg/ha): 9.0
- ZEAMX rating (ZEAMX (Corn, Field); 0.0156 kg/ha): 0.0
- ZEAMX rating (ZEAMX (Corn, Field); 0.0313 kg/ha): 0.0
- ZEAMX rating (ZEAMX (Corn, Field); 0.0625 kg/ha): 0.0
- ZEAMX rating (ZEAMX (Corn, Field); 0.1250 kg/ha): 0.0
- ZEAMX rating (ZEAMX (Corn, Field); 0.2500 kg/ha): 6.0

Source: patent US20020137929A1, “1 - (3-heterocyclylphenyl) isothiourea, -isourea, -guanidine and -amidine herbicidal agents” (Intellectual Property Department, BASF Aktiengesellschaft, priority 1998, published 2002)
